Measured values from patent publication US6544987B2, “Compounds, compositions, and methods for stimulating neuronal growth and elongation” (Pfizer Inc., priority 1999, dated 2003).
Values joined by “and” are separate entries in the source; they are usually repeats but may differ in a detail not shown here. Equal values may be shown once.

What follows are compounds tested against FKBP12 (Homo sapiens, UniProt P62942) (assay: Affinity for FKBP-12 (Ki), succinyl-Ala-Leu-Pro-Phe-pNA chymotrypsin-coupled assay). Settings: Table 2; read-out: FKBP12 Kiapps.
Sequence of FKBP12 (P62942 whole entry, species assumed): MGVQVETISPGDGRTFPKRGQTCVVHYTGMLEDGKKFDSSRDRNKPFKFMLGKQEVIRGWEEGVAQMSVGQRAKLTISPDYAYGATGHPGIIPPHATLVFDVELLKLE
Format: biochemical
Description: In a quartz cuvette, a final 1 mL buffer concentration was reached (50 mM Hepes, 100 mM NaCl, pH 8.0). Within this final reaction volume, 3.5 μL […] FKBP-12 (in 50 mM Hepes, 100 mM NaCl, pH 8.0) and 10 μL test compound in DMSO were added. The reaction was initiated by adding 10 μL chymotrypsin (100 mg/mL in 1 mM HCl) followed by 5 μL (1-20 mM succinyl-Ala-Leu-Pro-Phe-pNA in 240 mM LiCl/TFE).
The absorbance at 390 nm versus time was monitored for up to 400 seconds. Rate constants were determined from the absorbance versus time plots generated.

**Q.** `O=C(OCCCCc1ccccc1)[C@@H]1CCCCN1S(=O)(=O)Oc1ccccc1` [Compound 13, 1-Phenoxy sulfonyl-piperidine-2S-carboxylic acid 4-phenyl-butyl ester] was tested. Which Ki did it give?
**A.** The Ki was 6.5 µM.

**Q.** `O=C(OCc1ccccc1)[C@@H]1CCCN1S(=O)(=O)Oc1ccccc1` [Compound 15, 1-Phenoxy sulfonyl-pyrrolidine-2S-carboxylic acid benzyl ester] was tested. Which Ki did it give?
**A.** Its Ki is 27.7 µM.

**Q.** For `CCC(C)(C)NS(=O)(=O)N1CCC[C@H]1C(=O)OCc1ccccc1` [Compound 27, 1-(1,1-Dimethyl-propylsulfamoyl)-pyrrolidine-2S-carboxylic acid Benzyl ester], which Ki is on record?
**A.** Its Ki is 2.8 µM.

**Q.** Which Ki does the source give for `O=C(OCc1ccccc1)[C@@H]1CCCN1S(=O)(=O)Nc1ccccc1` [Compound 28, 1-Phenylsulfamoyl-pyrrolidine-2S-carboxylic acid Benzyl ester] here?
**A.** The Ki was 19.7 µM.

**Q.** With `COc1cc(NS(=O)(=O)N2CCC[C@H]2C(=O)OCc2ccccc2)cc(OC)c1OC` [Compound 29, 1-(3,4,5-Trimethoxy-phenylsulfamoyl)-pyrrolidine-2S-carboxylic acid Benzyl ester] as the compound, how does the Ki read?
**A.** Its Ki is 34.4 µM.

**Q.** With `COc1cc(NS(=O)(=O)N2CCCC[C@H]2C(=O)OCc2ccccc2)cc(OC)c1OC` [Compound 36, 1-(3,4,5-Trimethoxy-phenylsulfamoyl)-piperidine-2S-carboxylic acid Benzyl ester] as the compound, how does the Ki read?
**A.** Its Ki is 0.398 µM.

**Q.** For `NS(=O)(=O)N1CCCC[C@H]1C(=O)OCc1ccccc1` [Compound 37, 1-sulfamoyl-piperidine-2S-carboxylic acid Benzyl ester], which Ki is on record?
**A.** The Ki was 122 µM.

**Q.** `CCC(C)(C)NS(=O)(=O)N1CCCC[C@H]1C(=O)OCc1ccccc1` [Compound 38, 1-(1,1-Dimethyl-propylsulfamoyl)-piperidine-2S-carboxylic acid Benzyl ester] was tested. Which Ki did it give?
**A.** Its Ki is 0.678 µM.

**Q.** How did the Ki turn out when `COc1cc(NS(=O)(=O)N2CCCC[C@H]2C(=O)O)cc(OC)c1OC` [Compound 39, 1-(3,4,5-Trimethoxy-phenylsulfamoyl)-piperidine-2S-carboxylic acid] was run?
**A.** The Ki was over 100 µM.

**Q.** With `COc1cc(N2C(=O)[C@@H]3CCCCN3S2(=O)=O)cc(OC)c1OC` [Compound 40, 1,1-Dioxo-2-(3,4,5-trimethoxy-phenyl)-hexahydro-1-[1,2,5] Thiadiazolo [2,3-] pyridin-3-one] as the compound, how does the Ki read?
**A.** Its Ki is 228 µM.

**Q.** For `NS(=O)(=O)N1CCCC[C@H]1C(=O)OCCCCc1ccccc1` [Compound 41, 1-Sulfamoyl-piperidine-2S-carboxylic acid 4-phenyl-butyl ester], which Ki is on record?
**A.** The Ki was 38 µM.

**Q.** Which Ki does the source give for `O=C(OCCCCc1ccccc1)[C@@H]1CCCCN1S(=O)(=O)Nc1ccc(N2CCOCC2)cc1` [Compound 42, (S)-1-(4-morpholin-4-yl-phenylsulfamoyl)-piperidine-2-carboxylic 4-phenyl-butyl ester] here?
**A.** The Ki was 0.266 µM.

**Q.** How did the Ki turn out when `COc1ccc(N(C)S(=O)(=O)N2CCCC[C@H]2C(=O)OCCCCc2ccccc2)cc1` [Compound 43, 1-[(4-methoxy-phenyl)-methyl-sulfamoyl]-piperidine-2S-carboxylic acid 4-phenyl-butyl ester] was run?
**A.** Its Ki is 19.2 µM.

**Q.** With `CN(c1ccccc1)S(=O)(=O)N1CCCC[C@H]1C(=O)OCCCCc1ccccc1` [Compound 44, 1-(Methyl-phenyl-sulfamoyl)-piperidine-2S-carboxylic acid 4-phenyl-butyl ester] as the compound, how does the Ki read?
**A.** Its Ki is 12 µM.

**Q.** `O=C(OCCCCc1ccccc1)[C@@H]1CCCCN1S(=O)(=O)Nc1ccc2[nH]c(=O)[nH]c2c1` [Compound 45, 1-(2-Oxo-2,3-dihydro-1H-benzoimidazol-5-ylsulfamoyl)-piperidine-2-carboxylic acid 4-phenyl-butyl ester] was tested. Which Ki did it give?
**A.** The Ki was 0.084 µM.

**Q.** With `COc1ccc2nc(NS(=O)(=O)N3CCCC[C@H]3C(=O)OCCCCc3ccccc3)sc2c1` [Compound 46, 1-(6-Methoxy-benzothiazol-2-ylsulfamoyl)-piperidine-2S-carboxylic acid 4-phenyl-butyl ester] as the compound, how does the Ki read?
**A.** The Ki was 37 µM.

**Q.** `O=C(OCCCCc1ccccc1)[C@@H]1CCCCN1S(=O)(=O)Nn1cccc1` [Compound 47, 1-(Pyrrol-1-ylsulfamoyl)-piperidine-2S-carboxylic acid 4-phenylbutyl ester] was tested. Which Ki did it give?
**A.** Its Ki is 1.6 µM.

**Q.** `COc1cc(NS(=O)(=O)N2CCCC[C@H]2C(=O)OCCCCc2ccccc2)cc(OC)c1` [Compound 48, 1-(3,5-Dimethoxy-phenylsulfamoyl)-piperidine-2S-carboxylic acid 4-phenyl-butyl ester] was tested. Which Ki did it give?
**A.** The Ki was 0.344 µM.

**Q.** How did the Ki turn out when `COc1ccc(NS(=O)(=O)N2CCCC[C@H]2C(=O)OCCCCc2ccccc2)cn1` [Compound 49, 1-(6-methoxy-pyridin-3-ylsulfamoyl)-piperidine-2S-carboxylic acid 4-phenyl-butyl ester] was run?
**A.** Its Ki is 0.08 µM.

**Q.** How did the Ki turn out when `NC(=O)C1CCCN(S(=O)(=O)N2CCCC[C@H]2C(=O)OCCCCc2ccccc2)C1` (stereo partly drawn) [Compound 51, 1-(3-Carbamoyl-piperidine-1-sulfonyl)-piperidine-2S-carboxylic acid 4-phenyl-butyl ester] was run?
**A.** Its Ki is 0.93 µM.

**Q.** Which Ki does the source give for `O=C(OCCCCc1ccccc1)[C@@H]1CCCCN1S(=O)(=O)Nc1ccc(Cl)nc1` [Compound 52, (S)-1-(6-Chloro-pyridin-3-ylsulfamoyl)-piperidine-2-carboxylic acid 4-phenyl-butyl ester] here?
**A.** Its Ki is 0.152 µM.

**Q.** For `COC(OC)c1ccn(S(=O)(=O)N2CCCC[C@H]2C(=O)OCCCCc2ccccc2)n1` [Compound 53, 1-(3-Dimethoxymethyl-pyrazole-1-sulfonyl)-peperidine-2-carboxyic acid 4-phenyl-butyl ester], which Ki is on record?
**A.** Its Ki is 2.9 µM.

**Q.** With `COc1ccc(N(C)S(=O)(=O)N2CCCC[C@H]2C(=O)OCCCCc2ccccc2)cc1[N+](=O)[O-]` [Compound 54, (S)-1-[(4-Methoxy-3-nitro-phenyl)-methyl-sulfamoyl]-piperidine-2-carboxylic acid 4-phenyl-butyl ester] as the compound, how does the Ki read?
**A.** Its Ki is 26 µM.

**Q.** With `COc1ccc(N(C)S(=O)(=O)N2CCCC[C@H]2C(=O)OCCCCc2ccccc2)cc1N` [Compound 55, (S)-1-[(3-Amino-4-methoxy-phenyl)-methyl-sulfamoyl]-piperidine-2-carboxylic acid 4-phenyl-butyl ester] as the compound, how does the Ki read?
**A.** Its Ki is 13.1 µM.

**Q.** `O=C(OCCCCc1ccccc1)[C@@H]1CCCCN1S(=O)(=O)Nc1ccc2nc[nH]c2c1` [Compound 56, (S)-1-(3H-Benzoimidazol-5-ylsulfamoyl)-piperidine-2-carboxylic acid 4-phenyl-butyl ester] was tested. Which Ki did it give?
**A.** The Ki was 0.477 µM.

**Q.** `COc1cc(NS(=O)(=O)N2CCCC[C@H]2C(=O)NCCCCc2ccccc2)cc(OC)c1OC` [Compound 59, (S)-1-(3,4,5-Trimethoxy-phenylsulfamoyl)-piperidine-2-carboxylic acid (4-phenyl-butyl)-amide] was tested. Which Ki did it give?
**A.** The Ki was 0.148 µM.

**Q.** Which Ki does the source give for `NS(=O)(=O)N1CCSCC1C(=O)OCCCCc1ccccc1` (stereo not drawn) [Compound 67, 4-sulfamoyl-thiomorpholine-3-carboxylic acid 4-phenyl-butyl ester] here?
**A.** Its Ki is 329 µM and 267 µM.

**Q.** How did the Ki turn out when `COc1cc(NS(=O)(=O)N2CCSCC2C(=O)OCCCCc2ccccc2)cc(OC)c1OC` (stereo not drawn) [Compound 68, 4-(3,4,5-trimethoxy-phenylsulfamoyl)-thiomorpholine-3-carboxylic acid 4-phenyl-butyl ester] was run?
**A.** The Ki was 4.41 µM and 6.4 µM.

**Q.** Which Ki does the source give for `O=C(OCCCCc1ccccc1)C1CSCCN1S(=O)(=O)Nc1ccccc1` (stereo not drawn) [Compound 69, 4-Phenylsulfamoyl-thiomorpholine-3-carboxylic acid 4-phenyl-butyl ester] here?
**A.** Its Ki is 5.2 µM.

**Q.** With `O=C(OCCCCc1ccccc1)C1CSCCN1S(=O)(=O)Nc1ccc2[nH]c(=O)[nH]c2c1` (stereo not drawn) [Compound 70, 4-(2-Oxo-2,3-dihydro-1H-benzoimidazol-5-ylsulfamoyl)-thiomorpholine-3-carboxylic acid 4-phenyl-butyl ester] as the compound, how does the Ki read?
**A.** Its Ki is 0.96 µM.
